In patent US20110015208A1, “PHARMACEUTICAL COMPOSITIONS CONTAINING DOPAMINE RECEPTOR LIGANDS AND METHODS OF TREATMENT USING DOPAMINE RECEPTOR LIGANDS” (priority 2007, published 2011):
Where a name gives a salt, the structure may show the parent alone.

What was measured:
[1] = test system: d-amphetamine/chlordiazepoxide mixture (AMPH/CDP)-induced hyperactivity in mice; assay: d-Amphetamine/chlordiazepoxide (AMPH/CDP) hyperactivity test (Example 4A); format: in vivo, mouse; conditions: for Total Distance Traveled [mean ± SEM]: test condition AMPH/CDP, 60 min pretreatment
Experimental: (§1) Cariprazine hydrochloride and escitalopram oxalate were evaluated for anti-manic effects using the amphetamine/chlordiazepoxide (AMPH/CDP) hyperactivity test.
(§2) Male C57B1/6J mice from Jackson Laboratories (Bar Harbor, Me.) were used in this study. Mice were received at 6-weeks of age. Upon receipt, mice were assigned unique identification numbers (tail marked) and were group housed with 4 mice/cage. All animals remained housed in groups of four during the remainder of the study. All mice were acclimated to the colony room for at least two weeks prior to testing and were subsequently tested at an average age of 8 weeks of age. During the period of acclimation, mice were examined on a regular basis, handled, and weighed to assure adequate health and suitability. Mice were maintained on a 12/12 light/dark cycle. The room temperature was maintained between 20 and 23° C. with a relative humidity maintained between 30% and 70%. Chow and water were provided ad libitum for the duration of the study. In each test, animals were randomly assigned across treatment groups.
d-Amphetamine sulfate (Sigma, 4.0 mg/kg) and chlordiazepoxide (CDP; Sigma, 2.5 mg/kg) were dissolved in sterile water and were administered intraperitoneally at a dose volume of 10 ml/kg.
(§3) Distance traveled is measured by consecutive beam breaks.
(§4) Data was analyzed by analysis of variance (ANOVA) followed by Fisher PLSD post-hoc analysis when appropriate. An effect was considered significant if p<0.05. Outliers that fell above and below two standard deviations from the mean were removed from the final analysis.

[2] = test system: basal locomotor activity of mice; assay: Open field, basal locomotor activity of mice (Example 4A); format: in vivo, mouse; conditions: for Total Distance Traveled [mean ± SEM]: test condition water, 60 min pretreatment
Experimental: as §1, §2, §3, §4

[3] = test system: basal locomotor activity of mice; assay: Open field, basal locomotor activity of mice (Example 4B); format: in vivo, mouse; conditions: test condition water
Experimental: as §1
Male C57B1/6J mice (8 weeks old) from Jackson Laboratories (Bar Harbor, Me.) were used in this study. Upon receipt, mice were assigned unique identification numbers (tail marked) and were group housed (4 mice/cage) in OPTI mouse ventilated cages. All animals remained housed in groups of four during the remainder of the study. During the period of acclimation, mice were examined on a regular basis, handled, and weighed to assure adequate health and suitability. Mice were maintained on a 12/12 light/dark cycle. The room temperature was maintained between 20 and 23° C. with a relative humidity maintained between 30% and 70%. Chow and water were provided ad libitum for the duration of the study. In each test, animals were randomly assigned across treatment groups.
as §3, §4

[4] = test system: extracellular serotonin (5-HT) in the frontal cortex; assay: Dual-probe microdialysis, serotonin in frontal cortex of freely-moving rats; format: in vivo, rat
Experimental: (§5) A dual-probe microdialysis study was conducted to determine the effects of oral administration of cariprazine hydrochloride, alone and in combination with escitalopram oxalate (administered subcutaneously), on extracellular concentrations of acetylcholine (ACh), dopamine (DA) and serotonin (5-HT) in the frontal cortex of freely-moving rats.
(§6) Experiments were carried out in male Sprague Dawley rats (250-350 g body weight; Charles River, UK). Animals were housed in groups of six on a 12 h/12 h light/dark cycle (lights on at 07.30 h), at an ambient temperature of 21±2° C. and 55±20% humidity. Food and water were available ad libitum. Animals were allowed to acclimatise to these conditions for at least 5 days prior to the study.
(§7) Rats were anaesthetised with isoflurane (5% to induce, 2% to maintain) in an O2/N2O (1 litre/min each) mixture delivered via an anaesthetic unit (St Bernard Medical Services, UK). […] Samples were measured from the same side in each rat (e.g. left probe was used to measure ACh and right probe was used to measure DA and 5-HT). […]

[5] = test system: extracellular dopamine (DA) in the frontal cortex; assay: Dual-probe microdialysis, dopamine in frontal cortex of freely-moving rats; format: in vivo, rat
Experimental: as §5, §6, §7

[6] = test system: extracellular acetylcholine (ACh) in the frontal cortex; assay: Dual-probe microdialysis, acetylcholine in frontal cortex of freely-moving rats; format: in vivo, rat; conditions: for change in basal ACh levels compared to vehicle+saline-treated controls: escitalopram oxalate 1.0 mg/kg sc
Experimental: as §5, §6
Rats were anaesthetised with isoflurane (5% to induce, 2% to maintain) in an O2/N2O (1 litre/min each) mixture delivered via an anaesthetic unit (St Bernard Medical Services, UK). Concentric microdialysis probes with 2 mm exposed polyarylethersulphone (PAES) membrane tip (CMA) were stereotaxically implanted bilaterally into the prefrontal cortex (coordinates: AP: +3.2 mm; L: +/−2.5 mm relative to bregma; V: −4.0 mm relative to the skull surface; taken from the stereotaxic atlas of Paxinos and Watson (Paxinos G, Watson C., The Rat Brain in Stereotaxic Coordinates, 2nd Edition, London: Academic Press, 1986). The upper incisor bar was set at 3.3 mm below the interaural line so that the skull surface between bregma and lambda was horizontal. The coordinates for each probe were identical from bregma except for the lateral measurement as one probe was placed to the left of the midline and the other to the right. Samples were measured from the same side in each rat (e.g. left probe was used to measure ACh and right probe was used to measure DA and 5-HT). Additional burr holes were made for skull screws (stainless steel) and the probes were secured using dental cement. […]

[7] = escitalopram oxalate 1.0 mg/kg sc
[8] = cariprazine hydrochloride alone 0.03, 0.1 and 0.3 mg/kg po

`CN(C)CCC[C@@]1(c2ccc(F)cc2)OCc2cc(C#N)ccc21` [Escitalopram oxalate, 1-[3-(dimethyl-amino)propyl]-1-(p-fluorophenyl)-5-phthalancarbonitrile] was tested, and the “effect on mixture-induced hyperactivity” value ([1]; escitalopram oxalate 0.5 mg/kg oral) was “trend toward a significant decrease”, the “effect on mixture-induced hyperactivity” value ([1]; escitalopram oxalate 5.0 mg/kg oral) was “increased” and the “Total Distance Traveled [mean ± SEM]” value ([1]; 0.50 mg/kg oral) was 30067 ± 1901 cm/60 min. The “Total Distance Traveled [mean ± SEM]” value ([1]; 2.0 mg/kg oral) was 36112 ± 1934 cm/60 min, the “Total Distance Traveled [mean ± SEM]” value ([1]; 5.0 mg/kg oral) was 39639 ± 1582 cm/60 min and the “Total Distance Traveled [mean ± SEM]” value ([2]; 0.50 mg/kg oral) was 4435 ± 389 cm/60 min. For the same compound, the “Total Distance Traveled [mean ± SEM]” value ([2]; 5.0 mg/kg oral) was 6499 ± 445 cm/60 min, the “Total Distance Traveled [mean ± SEM]” value ([3]; escitalopram oxalate 0.10 mg/kg oral) was 5551 ± 382 cm/60 min and the “Total Distance Traveled [mean ± SEM]” value ([3]; escitalopram oxalate 0.50 mg/kg oral) was 5238 ± 242 cm/60 min. The “basal 5-HT levels” value [4, 7] was “no effect”, the “basal DA levels” value [5, 7] was “no effect” and the “change in basal ACh levels compared to vehicle+saline-treated controls” value ([6]; 100 min post-administration) was −55%. For the same compound, the “change in basal ACh levels compared to vehicle+saline-treated controls” value ([6]; 240 min post-administration) was −56%.

In the case of `CN(C)C(=O)N[C@H]1CC[C@H](CCN2CCN(c3cccc(Cl)c3Cl)CC2)CC1` [Cariprazine hydrochloride, trans-4-{2-[4-(2,3-dichlorophenyl)-piperazin-1-yl]-ethyl}-N,N-dimethylcarbamoyl-cyclohexylamine hydrochloride], the “effect on mixture-induced hyperactivity” value ([1]; cariprazine hydrochloride 0.10 and 0.30 mg/kg oral) is reported as “significantly decreased”, the “Total Distance Traveled [mean ± SEM]” value ([1]; 0.03 mg/kg oral) is reported as 32122 ± 2942 cm/60 min and the “Total Distance Traveled [mean ± SEM]” value ([1]; 0.10 mg/kg oral) is reported as 13688 ± 2349 cm/60 min. For the same compound, the “Total Distance Traveled [mean ± SEM]” value ([1]; 0.30 mg/kg oral) was 2525 ± 204 cm/60 min, the “effect on basal locomotor activity compared to water” value ([2]; cariprazine hydrochloride 0.10 mg/kg oral) was “trend toward a significant decrease” and the “effect on basal activity compared to water” value ([2]; cariprazine hydrochloride 0.30 mg/kg oral) was “significantly decreased”. For the same compound, the “Total Distance Traveled [mean ± SEM]” value ([2]; 0.03 mg/kg oral) was 4056 ± 427 cm/60 min, the “Total Distance Traveled [mean ± SEM]” value ([2]; 0.10 mg/kg oral) was 1726 ± 112 cm/60 min and the “Total Distance Traveled [mean ± SEM]” value ([2]; 0.30 mg/kg oral) was 917 ± 73 cm/60 min. For the same compound, the “Total Distance Traveled [mean ± SEM]” value ([3]; cariprazine HCl 0.03 mg/kg oral) was 4013 ± 343 cm/60 min, the “Total Distance Traveled [mean ± SEM]” value ([3]; cariprazine HCl 0.10 mg/kg oral) was 2697 ± 259 cm/60 min and the “efflux of 5-HT in the frontal cortex” value [4, 8] was “no significant effect”. For the same compound, the “efflux of DA in the frontal cortex” value [5, 8] was “no significant effect” and the “efflux of ACh in the frontal cortex” value [6, 8] was “no significant effect”.
